Data as given in patent publication US11986471B2, “Compounds and methods of use” (Tango Therapeutics, Inc., priority 2018, dated 2024).

Columns and labels:
PRMT5 [1] = target: T1, PRMT5 (Homo sapiens, UniProt O14744); test: PRMT5 IC50 assay in the presence of SAM as cofactor; type: biochemical
T1 construct: purchased Viva (custom protein)
In short: (§1)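 Potency against PRMT5 is compared across cofactor states, where IC50 equals Ki×1.5 with SAM present and Ki×13.5 with MTA present.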

HAP1 MTAP-intact = test: SDMA in-cell western assay, HAP1 MTAP-intact cell line; type: cell-based; settings: Homo sapiens
In short: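 Potency reflects cellular SDMA reduction, detected by in-cell western, in HAP1 cells with or without MTAP (endogenous expression versus null).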

PRMT5 [2] = target: T1, PRMT5; test: PRMT5 IC50 assay with no cofactor; type: biochemical
In short: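 Cofactor-free, SAM and MTA formats; IC50 μM; Ki = IC50/1.5 for SAM, IC50/13.5 for MTA.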

PRMT5 [3] = target: T1, PRMT5; test: PRMT5 IC50 assay in the presence of MTA as cofactor; type: biochemical; settings: for IC50: PRMT5, MTA as cofactor
In short: as §1

HAP1 MTAP-deleted = test: SDMA in-cell western assay, HAP1 MTAP-deleted cell line; type: cell-based; settings: for IC50: Homo sapiens, HAP1 MTAP-deleted cell line; for MTAP Intact/Deleted Ratio: IC50 ratio HAP1 MTAP-intact / HAP1 MTAP-deleted
In short: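 These are IC50 values from an in-cell western measuring SDMA. The HAP1 cells used carry no MTAP, in contrast to the isogenic partner line with endogenous MTAP expression.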

[4] = ratio between Ki in the presence of SAM and Ki in the presence of MTA
[5] = ratio between the Ki in the presence of SAM and the Ki in the presence of MTA

T1 sequence (O14744 whole entry): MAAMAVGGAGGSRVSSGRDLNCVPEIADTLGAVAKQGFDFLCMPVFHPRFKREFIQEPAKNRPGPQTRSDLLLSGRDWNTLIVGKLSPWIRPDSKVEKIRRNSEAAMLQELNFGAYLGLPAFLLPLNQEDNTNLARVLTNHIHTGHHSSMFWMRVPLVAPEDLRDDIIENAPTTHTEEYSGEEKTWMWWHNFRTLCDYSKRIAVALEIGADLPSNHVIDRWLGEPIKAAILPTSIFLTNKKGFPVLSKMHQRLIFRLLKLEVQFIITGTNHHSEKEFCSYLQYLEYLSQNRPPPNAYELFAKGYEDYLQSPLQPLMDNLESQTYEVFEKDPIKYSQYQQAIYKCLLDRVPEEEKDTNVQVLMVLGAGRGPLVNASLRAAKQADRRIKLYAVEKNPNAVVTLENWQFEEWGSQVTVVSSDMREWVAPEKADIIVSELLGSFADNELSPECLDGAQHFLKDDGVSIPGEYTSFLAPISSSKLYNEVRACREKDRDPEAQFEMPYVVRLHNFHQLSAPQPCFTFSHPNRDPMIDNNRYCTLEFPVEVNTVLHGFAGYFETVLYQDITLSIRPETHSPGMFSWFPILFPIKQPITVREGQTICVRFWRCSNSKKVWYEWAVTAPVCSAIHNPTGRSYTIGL
T1 sequence (Q9BQA1 whole entry partner): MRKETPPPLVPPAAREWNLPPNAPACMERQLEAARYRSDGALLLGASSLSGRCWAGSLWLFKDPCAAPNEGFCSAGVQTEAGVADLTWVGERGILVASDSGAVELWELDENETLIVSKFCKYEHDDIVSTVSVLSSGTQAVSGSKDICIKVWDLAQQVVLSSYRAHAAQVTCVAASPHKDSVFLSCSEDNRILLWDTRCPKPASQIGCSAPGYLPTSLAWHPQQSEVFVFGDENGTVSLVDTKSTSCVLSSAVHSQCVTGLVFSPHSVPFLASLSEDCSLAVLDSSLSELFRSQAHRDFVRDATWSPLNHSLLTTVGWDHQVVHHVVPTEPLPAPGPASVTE

| Compound | IC50 (PRMT5 [1]) [nM] | IC50 (HAP1 MTAP-intact) [nM] | IC50 (PRMT5 [2]; read-out: No Co-factor IC50) [nM] | IC50 (PRMT5 [3]) [nM] | IC50 (HAP1 MTAP-deleted) [nM] | IC50 (PRMT5 [2]) [nM] | SAM/MTA Ratio (PRMT5 [3]; [4]) | MTAP Intact/Deleted Ratio (HAP1 MTAP-deleted) | SAM/MTA Ratio (PRMT5 [3]; [5]) |
| --- | --- | --- | --- | --- | --- | --- | --- | --- | --- |
| O=C(NC[C@H](O)CN1CCc2nc(OCc3cnco3)ccc2C1)c1ccnc(NC2CCC2)c1 [Compound 413, 2-(cyclobutylamino)-N-[(2S)-2-hydroxy-3-[2-(oxazol-5-ylmethoxy)-7,8-dihydro-5H-1,6-naphthyridin-6-yl]propyl]pyridine-4-carboxamide] | 500 to 5000 | ≥ 10000 | ≥ 5000 | 500 to 5000 | ≥ 10000 |  | A (a Ki ratio greater than or equal to 10 fold between the Ki in the presence of SAM and the Ki in the presence of MTA) | C* (an IC50 ratio of less than 3 fold between the IC50 in the HAP1 MTAP-intact cell line and the HAP1 MTAP-deleted cell line) |  |
| Cc1c(OCc2cn[nH]c2)ccc2c1CCN(C[C@@H](O)CNC(=O)c1ccnc(NC3CCC3)c1)C2 [Compound 254, 2-(cyclobutylamino)-N-[(2S)-2-hydroxy-3-[5-methyl-6-(1H-pyrazol-4-ylmethoxy)-3,4-dihydro-1H-isoquinolin-2-yl]propyl]pyridine-4-carboxamide] | 500 to 5000 | 1000 to 10000 | 500 to 5000 | 50 to 500 | 1000 to 10000 |  | A (a Ki ratio greater than or equal to 10 fold between the Ki in the presence of SAM and the Ki in the presence of MTA) | C* (an IC50 ratio of less than 3 fold between the IC50 in the HAP1 MTAP-intact cell line and the HAP1 MTAP-deleted cell line) |  |
| O=C(NC[C@H](O)CN1CCc2cc(OCc3cnco3)ccc2C1)c1ccnc(NC2CCCC2)c1 [Compound 407, (S)-2-(cxclopentylamino)-N-(2-hydroxy-3-(6-(oxazol-5-ylmethoxy)-3N-dihydroisoquinolin-2(1H)-yl)propyl)isonicotinamide] | 50 to 500 | < 1000 | ≥ 5000 | 50 to 500 | < 1000 |  | A (a Ki ratio greater than or equal to 10 fold between the Ki in the presence of SAM and the Ki in the presence of MTA) | B* (an IC50 ratio greater than or equal to 3 fold but lower than 10 fold between the IC50 in the HAP1 MTAP-intact cell line and the HAP1 MTAP-deleted cell line) |  |
| CC(=O)N1CCC(Nc2cc(C(=O)NC[C@H](O)CN3CCc4cc(OCc5ocnc5C)ccc4C3)cc(N3CCCCC3)n2)CC1 [Compound 587, 2-[(1-acetylpiperidin-4-yl)amino]-N-[(2S)-2-hydroxy-3-{6-[(4-methyl-1,3-oxazol-5-yl)methoxy]-1,2,3,4-tetrahydroisoquinolin-2-yl}propyl]-6-(piperidin-1-yl)pyridine-4-carboxamide] | 50 to 500 | 1000 to 10000 |  | 50 to 500 | < 1000 | 500 to 5000 |  | A* (an IC50 ratio greater than or equal to 10 fold between the IC50 in the HAP1 MTAP-intact cell line and the HAP1 MTAP-deleted cell line) | A (a Ki ratio greater than or equal to 10 fold between the Ki in the presence of SAM and the Ki in the presence of MTA) |
| Cc1c(OCc2ccnn2C)ccc2c1CCN(C[C@@H](O)CNC(=O)c1ccnc(NC3CCCC3)c1)C2 [Compound 277, (S)-2-(cyclopentylamino)-N-(2-hydroxy-3-(5-methyl-6-((1-methyl-1H-pyrazol-5-yl)methoxy)-3N-dihydroisoquinolin-2(1H)-yl)propyl)isonicotinamide] | 500 to 5000 | ≥ 10000 | ≥ 5000 | 500 to 5000 | ≥ 10000 |  | A (a Ki ratio greater than or equal to 10 fold between the Ki in the presence of SAM and the Ki in the presence of MTA) | C* (an IC50 ratio of less than 3 fold between the IC50 in the HAP1 MTAP-intact cell line and the HAP1 MTAP-deleted cell line) |  |

Continued, in another order:

| IC50 (PRMT5 [1]) [nM] | IC50 (HAP1 MTAP-intact) [nM] | IC50 (PRMT5 [2]; read-out: No Co-factor IC50) [nM] | IC50 (PRMT5 [3]) [nM] | IC50 (HAP1 MTAP-deleted) [nM] | IC50 (PRMT5 [2]) [nM] | Compound | SAM/MTA Ratio (PRMT5 [3]; [4]) | MTAP Intact/Deleted Ratio (HAP1 MTAP-deleted) | SAM/MTA Ratio (PRMT5 [3]; [5]) |
| --- | --- | --- | --- | --- | --- | --- | --- | --- | --- |
| 50 to 500 | ≥ 10000 | 500 to 5000 | 50 to 500 | 1000 to 10000 |  | O=C(NC[C@H](O)CN1CCc2c(ccc(OCc3cnco3)c2Cl)C1)c1ccnc(NC2CCN(C(=O)C3CC3)CC2)c1 [Compound 366, (S)—N-(3-(5-chloro-6-(oxazol-5-ylmethoxy)-3N-dihydroisoquinolin-2(1H)-yl)-2-hydroxypropyl)-2-((1-(cyclopropanecarbonyl)piperidin-4-yl)amino)isonicotinamide] | A (a Ki ratio greater than or equal to 10 fold between the Ki in the presence of SAM and the Ki in the presence of MTA) | B* (an IC50 ratio greater than or equal to 3 fold but lower than 10 fold between the IC50 in the HAP1 MTAP-intact cell line and the HAP1 MTAP-deleted cell line) |  |
| 50 to 500 | 1000 to 10000 |  | 50 to 500 | < 1000 | 50 to 500 | CC(=O)N1CCC(Nc2cc(C(=O)NC[C@H](O)CN3CCc4cc(OCc5ocnc5C)c(F)cc4C3)cc(N3CCCCC3)n2)CC1 [Compound 623] |  | A* (an IC50 ratio greater than or equal to 10 fold between the IC50 in the HAP1 MTAP-intact cell line and the HAP1 MTAP-deleted cell line) | A (a Ki ratio greater than or equal to 10 fold between the Ki in the presence of SAM and the Ki in the presence of MTA) |
| 50 to 500 | ≥ 10000 |  | 50 to 500 | < 1000 | 500 to 5000 | CCCC(=O)N1CCC(Nc2cc(C(=O)NC[C@H](O)CN3CCc4c(ccc(OCc5cnco5)c4C)C3)ccn2)CC1 [Compound 470, (S)-2-((1-butyrylpiperidin-4-yl)amino)-N-(2-hydroxy-3-(5-methyl-6-(oxazol-5-ylmethoxy)-3,4-dihydroisoquinolin-2(1H)-yl)propyl)isonicotinamide] |  | A* (an IC50 ratio greater than or equal to 10 fold between the IC50 in the HAP1 MTAP-intact cell line and the HAP1 MTAP-deleted cell line) | A (a Ki ratio greater than or equal to 10 fold between the Ki in the presence of SAM and the Ki in the presence of MTA) |
| 50 to 500 | ≥ 10000 | 500 to 5000 | 50 to 500 | 1000 to 10000 |  | CCC(=O)N1CCN(c2nc(NC3COC3)cc(C(=O)NC[C@H](O)CN3CCc4c(ccc(OCc5cnco5)c4Cl)C3)n2)CC1 [Compound 318, (S)—N-(3-(5-chloro-6-(oxazol-5-ylmethoxy)-3N-dihydroisoquinolin-2(1H)-yl)-2-hydroxypropyl)-6-(oxetan-3-ylamino)-2-(4-propionylpiperazin-1-yl)pyrimidine-4-carboxamide] | A (a Ki ratio greater than or equal to 10 fold between the Ki in the presence of SAM and the Ki in the presence of MTA) | C* (an IC50 ratio of less than 3 fold between the IC50 in the HAP1 MTAP-intact cell line and the HAP1 MTAP-deleted cell line) |  |
| 50 to 500 | ≥ 10000 |  | 50 to 500 | ≥ 10000 | ≥ 5000 | Cc1ncoc1COc1ccc2c(c1C)CCN(C[C@@H](O)CNC(=O)c1ccc3c(c1)CCN(C(=O)c1ccc(Br)cc1)C3)C2 [Compound 530] |  | C* (an IC50 ratio of less than 3 fold between the IC50 in the HAP1 MTAP-intact cell line and the HAP1 MTAP-deleted cell line) | A (a Ki ratio greater than or equal to 10 fold between the Ki in the presence of SAM and the Ki in the presence of MTA) |
